From patent US12552783B2, “Modulators of proteolysis and associated methods of use” (Arvinas Operations, Inc., priority 2018, dated 2026)

Molecular target: KRas (Homo sapiens, UniProt P01116, G12C)
Assay: KRas degradation in NCI-H2030 cells by Western blot, normalized to GAPDH (data of Table 14)
Format: cell-based
Parameters: host or cells: NCI-H2030
Settings: for Dmax: NCI-H2030
Procedure, shortened: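 After a day without serum, the G12C-homozygous cells received each compound at 0.3, 1 and 3 μM, with VHL-based degraders left for 24 h and other compounds for 72 h. DC50 is the concentration giving half-maximal degradation and DMax the maximal degradation, both taken from KRas levels normalized to GAPDH.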

Structure (SMILES) | Percent Degradation at Indicated Concentration (μM) (H2030, 0.3 μM) | Percent Degradation at Indicated Concentration (μM) (H2030, 1 μM) | Percent Degradation at Indicated Concentration (μM) (H2030, 3 μM) | Dmax [%] | other results
Cc1ncsc1-c1ccc([C@H](C)NC(=O)[C@@H]2C[C@@H](O)CN2C(=O)[C@@H](NC(=O)COCCOCCN(C)C(=O)CCNc2nc(N3CCN(C(=O)C(O)O)CC3)c3cc(Cl)c(-c4c(O)cccc4F)c(F)c3n2)C(C)(C)C)cc1 (atropisomer, axis not shown) [compound 237, (2S,4R)-1-((S)-2-(tert-butyl)-15-(((R)-6-chloro-4-(4-(2,2-dihydroxyacetyl)piperazin-1-yl)-8-fluoro-7-(2-fluoro-6-hydroxyphenyl)quinazolin-2-yl)amino)-12-methyl-4,13-dioxo-6,9-dioxa-3,12-diazapentadecanoyl)-4-hydroxy-N-((S)-1-(4-(4-methylthiazol-5-yl)phenyl)ethyl)pyrrolidine-2-carboxamide] | C (Percent Degradation: C ≤ 35) | C (Percent Degradation: C ≤ 35) | C (Percent Degradation: C ≤ 35) | ≤ 35 | –
C=CC(=O)N1CCN(c2nc(NCCC(=O)N(C)CCOc3ccc4c(c3)C(=O)N(C3CCC(=O)NC3=O)C4=O)nc3c(F)c(-c4cc(O)cc5ccccc45)c(Cl)cc23)CC1 (stereo not shown) [compound 467, 3-((4-(4-acryloylpiperazin-1-yl)-6-chloro-8-fluoro-7-(3-hydroxynaphthalen-1-yl)quinazolin-2-yl)amino)-N-(2-((2-(2,6-dioxopiperidin-3-yl)-1,3-dioxoisoindolin-5-yl)oxy)ethyl)-N-methylpropanamide] | C (Percent Degradation: C ≤ 35) | C (Percent Degradation: C ≤ 35) | C (Percent Degradation: C ≤ 35) | ≤ 35 | –
Cc1ncsc1-c1ccc([C@H](C)NC(=O)[C@@H]2C[C@@H](O)CN2C(=O)[C@@H](NC(=O)COCCN(C)C(=O)CCNc2nc(N3CCN(C(=O)C(O)O)CC3)c3cc(Cl)c(-c4c(O)cccc4F)c(F)c3n2)C(C)(C)C)cc1 (atropisomer, axis not shown) [compound 235, (2S,4R)-1-((S)-2-(2-(2-(3-(((R)-6-chloro-4-(4-(2,2-dihydroxyacetyl)piperazin-1-yl)-8-fluoro-7-(2-fluoro-6-hydroxyphenyl)quinazolin-2-yl)amino)-N-methylpropanamido)ethoxy)acetamido)-3,3-dimethylbutanoyl)-4-hydroxy-N-((S)-1-(4-(4-methylthiazol-5-yl)phenyl)ethyl)pyrrolidine-2-carboxamide] | – | – | – | – | Percent Degradation at Indicated Concentration (μM) (H2030 cells, 0.3 μM): C (Percent Degradation: C ≤ 35); Percent Degradation at Indicated Concentration (μM) (H2030 cells, 1 μM): C (Percent Degradation: C ≤ 35); Percent Degradation at Indicated Concentration (μM) (H2030 cells, 3 μM): C (Percent Degradation: C ≤ 35)
Cc1ncsc1-c1ccc([C@H](C)NC(=O)[C@@H]2C[C@@H](O)CN2C(=O)[C@@H](NC(=O)COCCOCCOCCOCCN(C)C(=O)CCNc2nc(N3CCN(C(=O)C(O)O)CC3)c3cc(Cl)c(-c4c(O)cccc4F)c(F)c3n2)C(C)(C)C)cc1 (atropisomer, axis not shown) [compound 240, (2S,4R)-1-((S)-2-(tert-butyl)-21-(((S)-6-chloro-4-(4-(2,2-dihydroxyacetyl)piperazin-1-yl)-8-fluoro-7-(2-fluoro-6-hydroxyphenyl)quinazolin-2-yl)amino)-18-methyl-4,19-dioxo-6,9,12,15-tetraoxa-3,18-diazahenicosanoyl)-4-hydroxy-N-((S)-1-(4-(4-methylthiazol-5-yl)phenyl)ethyl)pyrrolidine-2-carboxamide] | – | – | – | – | Percent Degradation at Indicated Concentration (μM) (H2030 cells, 0.3 μM): C (Percent Degradation: C ≤ 35); Percent Degradation at Indicated Concentration (μM) (H2030 cells, 1 μM): C (Percent Degradation: C ≤ 35); Percent Degradation at Indicated Concentration (μM) (H2030 cells, 3 μM): C (Percent Degradation: C ≤ 35)
C=CC(=O)N1CCN(c2nc(NCCC(=O)N(C)CCOc3cc(-c4scnc4C)ccc3CNC(=O)[C@@H]3C[C@@H](O)CN3C(=O)[C@H](c3cc(C)no3)C(C)C)nc3c(F)c(-c4cc(O)cc5ccccc45)c(Cl)cc23)CC1 [compound 338, (2S,4R)-N-(2-(2-(3-((4-(4-acryloylpiperazin-1-yl)-6-chloro-8-fluoro-7-(3-hydroxynaphthalen-1-yl)quinazolin-2-yl)amino)-N-methylpropanamido)ethoxy)-4-(4-methylthiazol-5-yl)benzyl)-4-hydroxy-1-((S)-3-methyl-2-(3-methylisoxazol-5-yl)butanoyl)pyrrolidine-2-carboxamide] | C (Percent Degradation: C ≤ 35) | C (Percent Degradation: C ≤ 35) | C (Percent Degradation: C ≤ 35) | ≤ 35 | –
CN[C@@H](C)C(=O)N[C@H](C(=O)N1CCC[C@H]1c1nc(-c2ccc(OCCOCCOCCOCCN(C)C(=O)CCNc3nc(N4CCN(C(C)=O)CC4)c4cc(Cl)c(-c5cc(O)cc6ccccc56)c(F)c4n3)c3ccccc23)cs1)C1CCCCC1 [compound 268, 3-((4-(4-acetylpiperazin-1-yl)-6-chloro-8-fluoro-7-(3-hydroxynaphthalen-1-yl)quinazolin-2-yl)amino)-N-(2-(2-(2-(2-((4-(2-((S)-1-((S)-2-cyclohexyl-2-((S)-2-(methylamino)propan-amido)acetyl)pyrrolidin-2-yl)thiazol-4-yl)naphthalen-1-yl)oxy)ethoxy)ethoxy)eth-oxy)ethyl)-N-methylpropanamide] | C (Percent Degradation: C ≤ 35) | C (Percent Degradation: C ≤ 35) | C (Percent Degradation: C ≤ 35) | ≤ 35 | –
CCC(=O)N1CCN(c2nc(NCCC(=O)N(C)CCOc3ccc4c(c3)C(=O)N(C3CCC(=O)NC3=O)C4=O)nc3c(F)c(-c4cc(O)cc5ccccc45)c(Cl)cc23)CC1 (stereo not shown) [compound 46, 3-((6-chloro-8-fluoro-7-(3-hydroxynaphthalen-1-yl)-4-(4-propionylpiperazin-1-yl)quinazolin-2-yl)amino)-N-(2-((2-(2,6-dioxopiperidin-3-yl)-1,3-dioxoisoindolin-5-yl)oxy)ethyl)-N-methylpropanamide] | – | – | – | – | Percent Degradation at Indicated Concentration (μM): 0.3 (H2030 cells, 0.3 μM): C (C ≤ 35); Percent Degradation at Indicated Concentration (μM): 1 (H2030 cells, 1 μM): C (C ≤ 35); Percent Degradation at Indicated Concentration (μM): 3 (H2030 cells, 3 μM): C (C ≤ 35); Dmax (H2030 cells): ≤ 35%
C=CC(=O)N1CCN(c2nc(NCCC(=O)N(C)CCOCCOc3ccc4c(c3)CN(C3CCC(=O)NC3=O)C4=O)nc3c(F)c(-c4cc(O)cc5ccccc45)c(Cl)cc23)CC1 (stereo not shown) [compound 65, 3-((4-(4-acryloylpiperazin-1-yl)-6-chloro-8-fluoro-7-(3-hydroxynaphthalen-1-yl)quinazolin-2-yl)amino)-N-(2-(2-((2-(2,6-dioxopiperidin-3-yl)-1-oxoisoindolin-5-yl)oxy)ethoxy)ethyl)-N-methylpropanamide] | – | – | – | – | Percent Degradation at Indicated Concentration (μM): 0.3 (H2030 cells, 0.3 μM): C (C ≤ 35); Percent Degradation at Indicated Concentration (μM): 1 (H2030 cells, 1 μM): C (C ≤ 35); Percent Degradation at Indicated Concentration (μM): 3 (H2030 cells, 3 μM): C (C ≤ 35); Dmax (H2030 cells): ≤ 35%
CCC(=O)N1CCN(c2nc(NCCC(=O)N(C)CCOCCOCCOCCOCCOc3ccc4c(c3)C(=O)N(C3CCC(=O)NC3=O)C4=O)nc3c(F)c(-c4cc(O)cc5ccccc45)c(Cl)cc23)CC1 (stereo not shown) [compound 50, 3-((6-chloro-8-fluoro-7-(3-hydroxynaphthalen-1-yl)-4-(4-propionylpiperazin-1-yl)quinazolin-2-yl)amino)-N-(14-((2-(2,6-dioxopiperidin-3-yl)-1,3-dioxoisoindolin-5-yl)oxy)-3,6,9,12-tetraoxatetradecyl)-N-methylpropanamide] | – | – | – | – | Percent Degradation at Indicated Concentration (μM): 0.3 (H2030 cells, 0.3 μM): C (C ≤ 35); Percent Degradation at Indicated Concentration (μM): 1 (H2030 cells, 1 μM): C (C ≤ 35); Percent Degradation at Indicated Concentration (μM): 3 (H2030 cells, 3 μM): C (C ≤ 35); Dmax (H2030 cells): ≤ 35%

The next lines start with results.

Percent Degradation at Indicated Concentration (μM) (H2030, 0.3 μM) | Percent Degradation at Indicated Concentration (μM) (H2030, 1 μM) | Percent Degradation at Indicated Concentration (μM) (H2030, 3 μM) | Dmax [%] | Structure (SMILES) | other results
C (Percent Degradation: C ≤ 35) | C (Percent Degradation: C ≤ 35) | C (Percent Degradation: C ≤ 35) | ≤ 35 | C=CC(=O)N1CCN(c2nc(NCCC(=O)N(C)CCOCCOc3ccc(-c4csc([C@@H]5CCCN5C(=O)[C@@H](NC(=O)[C@H](C)NC)C5CCCCC5)n4)c4ccccc34)nc3c(F)c(-c4cc(O)cc5ccccc45)c(Cl)cc23)CC1 [compound 271, 3-((4-(4-acryloylpiperazin-1-yl)-6-chloro-8-fluoro-7-(3-hydroxynaphthalen-1-yl)quinazolin-2-yl)amino)-N-(2-(2-((4-(2-((S)-1-((S)-2-cyclohexyl-2-((S)-2-(methylamino)propan-amido)acetyl)pyrrolidin-2-yl)thiazol-4-yl)naphthalen-1-yl)oxy)ethoxy)ethyl)-N-methylpropanamide] | –
C (Percent Degradation: C ≤ 35) | C (Percent Degradation: C ≤ 35) | C (Percent Degradation: C ≤ 35) | ≤ 35 | C=CC(=O)N1CCN(c2nc(NCCC(=O)N(C)CCOc3cc(-c4scnc4C)ccc3CNC(=O)[C@@H]3C[C@@H](O)CN3C(=O)[C@H](c3cc(C)no3)C(C)C)nc3c(F)c(-c4c(O)cccc4F)c(Cl)cc23)CC1 (atropisomer, axis not shown) [compound 127, (25,4R)-N-(2-(2-(3-(((S)-4-(4-acryloylpiperazin-1-yl)-6-chloro-8-fluoro-7-(2-fluoro-6-hydroxyphenyl)quinazolin-2-yl)amino)-N-methylpropanamido)ethoxy)-4-(4-methylthiazol-5-yl)benzyl)-4-hydroxy-1-((S)-3-methyl-2-(3-methylisoxazol-5-yl)butanoyl)pyrrolidine-2-carboxamide] | –
C (Percent Degradation: C ≤ 35) | C (Percent Degradation: C ≤ 35) | C (Percent Degradation: C ≤ 35) | ≤ 35 | C=CC(=O)N1CCN(c2nc(NCCC(=O)N(C)CCOCCOCCOCCOc3cc(-c4scnc4C)ccc3CNC(=O)[C@@H]3C[C@@H](O)CN3C(=O)[C@H](c3cc(C)no3)C(C)C)nc3c(F)c(-c4cc(O)cc5ccccc45)c(Cl)cc23)CC1 [compound 344] | –
